The subject of one test is ERK1/2. Description: ERK1/2 activation, Western blot in BAECs. To be noted: BAECs, SDF-1α 50 ng/ml. The format is cell-based, bovine. The protocol:
(§1) Cells were harvested in lysis buffer (1% Triton X-100, 50 mM Tris, pH 7.4, 150 mM NaCl, 1 mM Na3VO4 and 0.1% protease inhibitor tablet; Roche) and clarified by centrifugation at 16,000 g. Equal amounts of proteins were incubated with a specific antibody overnight at 4° C. with gentle rotation. Protein A/G Plus-agarose beads (Santa Cruz Biotechnology, Santa Cruz, Calif.) were used to pull down the antibody complexes. Afterward, beads were washed with lysis buffer, and immune complexes were separated by SDS-PAGE. Total cell lysates were separated by SDS-PAGE and transferred to nitrocellulose membranes.
(§2) Mitogen-activated protein kinases (MAPKs), including ERK1/2 and p38, have been reported to enhance angiogenesis (20, 21). However, the role of JNK in angiogenesis remains controversial, with studies showing both positive and negative outcomes of JNK activation. In order to determine which MAPKs are involved in SDF-1α-induced endothelial cell migration, we screened the activities and expression levels of ERK1/2, p38 and JNK following treatment of BAECs with SDF-1α. […] SDF-1α activated both JNK and ERK1/2 in a dose-dependent manner (FIG. 2B). […] Exogenous JNK1, JNK2 and JNK3 proteins containing Flag or GFP-epitopes were transiently expressed in BAECs and their activities were determined via western blotting with a phospho-JNK antibody following SDF-1α treatment. […]

The subject of another test is p38. The test can be described thus: p38 activation, Western blot in BAECs. Conditions: SDF-1α treatment. The format is cell-based, bovine. The protocol: as §1, §2
A further test relates to BAECs. Description: In vitro Matrigel angiogenesis (tube formation) assay. The class given is cell-based, bovine. Conditions: 50 ng/ml SDF-1α, control siRNA cells. The method, then:
Endothelial cell tube formation was analyzed with the Matrigel-based tube formation assay (40, 41). Chilled 24-well plates were coated with growth factor-reduced Matrigel (Becton Dickinson, San Jose, Calif.) that was polymerized at 37° C. for 30 min. BAECs were transfected with siRNA constructs with the Amaxa Nucleofector electroporation reagent. Three days later, cells were trypsinized, and plated at equal numbers into each Matrigel-coated well. After 18 hours of incubation in the absence or presence of SDF-1alpha, the formation of tubes was photographed (Eclipse, 10× objective, TS100Nikon). Images were quantified with ImageJ.
Endothelial cell migration is a critical step for tube formation during angiogenesis. To test the importance of JNK3 in highly ordered cell assembly processes, we examined the effect of JNK knockdown with siRNAs on the formation of capillary-like tubes in Matrigel. BAECs were transfected with JNK1 siRNA, JNK2 siRNA, JNK3 siRNA or control siRNA. After 72 hours, cells were plated on Matrigel in medium containing 50 ng/ml SDF-1α.

The subject of the next test is MKP7. The test can be described thus: Biotin switch assay, MKP7 nitrosylation in BAECs transfected with Flag-MKP7. The format is cell-based. Conditions: 50 ng/ml SDF-1alpha for 5 minutes. The method, then: Experiments were performed following the methods previously described by Dr. Stamler's laboratory (39). Cell lysates containing Flag or Myc-tagged MKP7 protein were treated with the indicated concentrations of GSNO followed by the addition of 2 volumes of HEN buffer and freshly prepared S-methyl methanethiosulfonate (10% v/v in N,N-dimethylformamide) and SDS (25% v/v) to final concentrations of 0.1 and 2.5%, respectively. Following frequent vortexing at 50° C. for 1 hour, proteins were precipitated with 3 volumes of acetone at −20° C. for 30 min. The proteins were recovered by centrifugation at 5,000×g for 5 min, followed by gentle rinsing of the pellet with 3×1 ml acetone. The pellets were then resuspended in 240 μl of HEN buffer containing 1% SDS. The resuspended protein was precipitated, rinsed and resuspended once more. For labeling, the blocked samples were mixed with 0.1 volume of biotin-HPDP (2.5 mg/ml in Me2SO) and 0.1 volume of HEN (control) or freshly prepared sodium Ascorbic acid in HEN buffer. […] The eluted mixture was then analyzed by SDS-PAGE, followed by immunoblotting with anti-Flag-HRP (1:5000) or antibodies.
As a first step, we investigated whether SDF-1α treatment of BAECs would result in S-nitrosylation of MKP7. […] Next we used JNK3 phosphorylation as a readout for determining whether or not SDF-1α activation of JNK3 could be inhibited by MKP7. […]

For SDF-1α, the ERK1/2 activity result in the test on ERK1/2 was “potently induced”. Further, in the test on p38, the p38 activation entry is listed as “not significantly activated”. In the test on BAECs, the tube length turned out to be 605±106 μm. Also, the “MKP7 nitrosylation in BAECs” value in the test on MKP7 is “increased”.

These data come from patent US8153589B2, “JNK3 as a target for the treatment of angiogenesis-related diseases” (The University of North Carolina at Chapel Hill, priority 2009, dated 2012).
